Measurements published in article PMC7764606 (Cancers, 2020).
Read-outs that look alike come from different tables or passages of the source.

What was measured:
recombinant AKR1C3 = molecular target: T1, recombinant AKR1C3 (Homo sapiens, UniProt P42330); experiment: Reduction of Dau by recombinant AKR1C3 (UHPLC detection of Dau-ol); type: biochemical; details: for reduction of AKR1C3 activity (Dau reduction): Dau 500 µM, relative to DMSO; for Ki: read-out: Ki^app (Morrison equation for tight-binding inhibitors)
T1 construct: made in house; host or cells: Escherichia coli
T1 sequence (P42330 1-323): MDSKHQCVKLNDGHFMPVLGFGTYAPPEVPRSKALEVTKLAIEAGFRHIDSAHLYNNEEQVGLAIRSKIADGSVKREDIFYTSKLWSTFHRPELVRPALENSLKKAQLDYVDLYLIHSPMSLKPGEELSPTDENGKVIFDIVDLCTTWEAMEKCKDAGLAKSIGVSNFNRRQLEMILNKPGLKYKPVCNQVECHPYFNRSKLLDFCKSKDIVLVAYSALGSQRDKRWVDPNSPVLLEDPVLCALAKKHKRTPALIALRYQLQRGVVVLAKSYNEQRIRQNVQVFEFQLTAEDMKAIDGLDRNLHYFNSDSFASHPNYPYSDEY
Description: (§1) Human recombinant CREs (CBR1, AKR1A1, 1B1, 1B10, 7A2, and 1C3) were produced by an Escherichia coli expression system as per methods described previously. For the inhibitory assay, each recombinant enzyme, CBR1 (1 µg), AKR1A1 (1 µg), AKR1B1 (5 µg), AKR1B10 (5 µg), AKR7A2 (3 µg), or AKR1C3 (1.5 µg) was incubated with BTK inhibitors at different concentrations (10 and 50 µM) and the substrate Dau (500 µM). For analysis using the Lineweaver-Burk plot, 1.5 µg of recombinant AKR1C3 was incubated with DMSO or BTK inhibitors (1, 5, and 10 µM) and Dau (200, 400, 600, 800, 1000, and 2000 µM). […] The incubations and further metabolite detection were further performed by using ultra-high-performance liquid chromatography (UHPLC) as per methods described previously.

recombinant AKR1B10 = system: T2, recombinant AKR1B10; experiment: Reduction of Dau by recombinant AKR1B10 (UHPLC detection of Dau-ol); type: biochemical, Human; details: Dau 500 µM, relative to DMSO
T2 construct: made in house; host or cells: Escherichia coli
Description: as §1

[1] = system: T3, AKR1C3 in HCT116-C3 cells; experiment: Dau metabolism to Dau-ol in HCT116 cells transiently overexpressing AKR1C3; type: cell-based, human; details: 5 h
T3 construct: expressed in transfected cells; host or cells: HCT116
Description: (§2) HCT116 cells were seeded (1.25 × 10^5 cells/well) in 24-well plates and cultured for 24 h. For the transient expression of the recombinant human AKR1C3, the cells were transfected with a pCI_AKR1C3 or empty pCI plasmid as control (previously described in a study by Hofman et al.) according to the manufacturer’s instructions (jetPRIME® Transfection Reagent; Polyplus Transfection®, Illkirch, France). For each 24-well plate, a mixture of 0.75 µL of the jetPRIME® Transfection Reagent and 0.25 µg of plasmid was incubated for 10 min at room temperature. Then, polyplexes were added to the HCT116 cells with 0.5 mL of fresh DMEM supplemented with 10% FBS and incubated for 24 h (37 °C, 5% CO2). The expression of recombinant AKR1C3 was verified by western blotting as per methods described previously.
After transfection of HCT116 cells or seeding of A549 cells (25 × 10^3 cells/well) in 24-well plates for 24 h, the medium was harvested and replaced with DMEM supplemented with 10% FBS containing 1 µM daunorubicin, with or without increasing concentrations (1, 5, and 10 μM) of BTK inhibitors. Cells were incubated (37 °C, 5% CO2) for 2.5 and 5 h (transfected HCT116) or only 5 h (A549). Then, the medium was collected and the cells were lysed in lysis buffer (25 mM Tris, 150 mM NaCl, and 1% Triton X-100, pH 7.8) for 15 min at room temperature. The collected medium was combined with cell lysate for further extraction and analysis of metabolites, as per methods described previously.

HCT116-EV cells = experiment: MTT cell viability, HCT116-EV cells (incl. Chou-Talalay analysis); type: cell-based, human
Description: as §2
(§3) Twenty-four hours prior to the experiment, transfected HCT116 cells (8 × 10^3 cells/well) or A549 cells (5 × 10^3 cells/well) were seeded in 96-well plates. The cell culture medium was replaced with fresh medium containing increasing amounts of Dau (final concentrations: 0.01, 0.05, 0.1, 0.25, 0.5, 0.75, 1, and 10 µM) with or without BTK inhibitors (final concentrations: 1, 5, and 10 µM). After 72 h of incubation under standard conditions (37 °C, 5% CO2), cell viability was assessed by MTT (Sigma-Aldrich, Prague, Czech Republic) assay. For this, 50 µL of the MTT solution (3 mg/mL) was added to each well and incubated for 30 min. The supernatant was collected, and the cell monolayers were dissolved in 100 µL of DMSO. The absorbance was measured at 570 and 690 nm by a microplate reader Infinite M200 (Tecan, Salzburg, Austria), and the background values at 690 nm were subtracted from the absorbance obtained at 570 nm. The half-maximal inhibitory concentrations (IC50) were calculated using GraphPad Prism 8.1.2. The drug combination pharmacodynamics were determined by the Chou-Talalay method using the CompuSyn ver. 3.0.1 software (ComboSyn Inc., Paramus, NJ, USA).

A549 cells = experiment: MTT cell viability, A549 cells (incl. Chou-Talalay analysis); type: cell-based, human
Description: as §3

[2] = system: AKR1C3 expression in A549 cells; experiment: AKR1C3 protein levels in A549 cells by western blotting; type: cell-based, human; details: 1, 5 and 10 µM, 72 h, western blot relative to β-actin
Description: A549 cells were incubated with DMSO or BTK inhibitors (1, 5, and 10 µM) for 72 h, and then total protein was extracted for analysis of AKR1C3 expression by western blotting (WB) as per methods described previously. A representative WB is shown for IBR (A) and ACA (B) incubations, and bars represent AKR1C3 protein levels as determined by densitometry relative to β-actin (n = 3, mean ± SD). Uncropped images from WB are available in Figure S1 in the Supplementary Materials. On the other hand, HCT116-EV and HCT116-C3 cells were treated with increasing concentrations of IBR (C) and ACA (D) for 72 h, and their viability was assessed by MTT assay. Graphs represent a comparison of the dose-response curves for percentages of cell viability in each cell line (n = 6, mean ± SD).

[3] = single oral dose of 140 mg; cited from earlier work
[4] = BTK-inhibitor 5 µM + Dau 0.25 µM
[5] = BTK-inhibitor 5 µM + Dau 0.50 µM

C=CC(=O)N1CCC[C@@H](n2nc(-c3ccc(Oc4ccccc4)cc3)c3c(N)ncnc32)C1 [Ibrutinib, ibrutinib]
reduction of AKR1C3 activity (Dau reduction) (recombinant AKR1C3; 10 µM BTK inhibitor): 92.17% ± 3.43% | reduction of AKR1C3 activity (Dau reduction) (recombinant AKR1C3; 50 µM BTK inhibitor): 96.41% ± 1.48% | Ki (recombinant AKR1C3; AKR1C3 0.005 mg/mL (0.135 μM)): 312 nM | Ki (recombinant AKR1C3; AKR1C3 0.015 mg/mL (0.405 μM)): 332 nM | Ki (recombinant AKR1C3; AKR1C3 0.030 mg/mL (0.811 μM)): 354 nM | mode of inhibition (Lineweaver-Burk plot) (recombinant AKR1C3; recombinant AKR1C3 with increasing Dau): non-competitive/mixed | inhibition of AKR1B10 activity (Dau reduction) (recombinant AKR1B10; 10 µM BTK inhibitor): 48.18% ± 2.10% | inhibition of AKR1B10 activity (Dau reduction) (recombinant AKR1B10; 50 µM BTK inhibitor): 74.97% ± 0.87% | decrease in AKR1C3 activity (Dau to Dau-ol) ([1]; 1 µM BTK inhibitor + 1 µM Dau): 29.40% ± 11.55% | decrease in AKR1C3 activity (Dau to Dau-ol) ([1]; 5 µM BTK inhibitor + 1 µM Dau): 45.16% ± 0.86% | decrease in AKR1C3 activity (Dau to Dau-ol) ([1]; 10 µM BTK inhibitor + 1 µM Dau): 60.72% ± 6% | Fraction affected (Fa %) (HCT116-EV cells; [4]): 58.13 ± 12.2% | Fraction affected (Fa %) (HCT116-EV cells; [5]): 77.56 ± 6.90% | Fraction affected (Fa %) (HCT116-EV cells; BTK-inhibitor 10 µM + Dau 0.25 µM): 58.56 ± 7.79% | Fraction affected (Fa %) (HCT116-EV cells; BTK-inhibitor 10 µM + Dau 0.50 µM): 81.92 ± 4.25% | IC50 (HCT116-EV cells; Homo sapiens, 72 h MTT, read-out: IC50 of BTK inhibitor alone (cell viability)): 17000 nM | Fraction affected (Fa %) (A549 cells; BTK-inhibitor 1 µM + Dau 0.01 µM): 21.92 ± 2.37% | Fraction affected (Fa %) (A549 cells; BTK-inhibitor 1 µM + Dau 0.25 µM): 43.16 ± 2.59% | Fraction affected (Fa %) (A549 cells; BTK-inhibitor 1 µM + Dau 0.50 µM): 71.16 ± 6.46% | Fraction affected (Fa %) (A549 cells; BTK-inhibitor 1 µM + Dau 0.75 µM): 86.63 ± 0.72% | Fraction affected (Fa %) (A549 cells; BTK-inhibitor 1 µM + Dau 1.00 µM): 91.12 ± 0.72% | Fraction affected (Fa %) (A549 cells; BTK-inhibitor 5 µM + Dau 0.01 µM): 33.76 ± 1.79% | Fraction affected (Fa %) (A549 cells; [4]): 54.13 ± 5.98% | Fraction affected (Fa %) (A549 cells; [5]): 85.67 ± 2.02% | Fraction affected (Fa %) (A549 cells; BTK-inhibitor 5 µM + Dau 0.75 µM): 91.76 ± 0.78% | Fraction affected (Fa %) (A549 cells; BTK-inhibitor 5 µM + Dau 1.00 µM): 94.00 ± 0.28% | effect on expression (protein levels) of AKR1C3 [2]: negligible or absence of effects | mean Cmax [3]: 37.1 ng/mL

COc1cccc2c1C(=O)c1c(O)c3c(c(O)c1C2=O)C[C@@](O)(C(C)=O)C[C@@H]3O[C@H]1C[C@H](N)[C@H](O)[C@H](C)O1 [Dau, daunorubicin]
Km (recombinant AKR1C3; substrate Dau, recombinant AKR1C3, read-out: Km used in the Morrison equation): 387 ± 36 µM
